{"source": "patent US20110117069A1", "about": "“METHOD FOR ACTIVATING REGULATORY T-CELLS” (IMTM GMBH, priority 2007, published 2011)", "key": {"APN": {"test_system": "APN", "conditions": "cited from earlier work; for Ki: α-Keto amides"}, "Argininyl AP": {"target": "Argininyl AP (Homo sapiens, UniProt Q9H4A4)", "sequence (Q9H4A4 whole entry)": "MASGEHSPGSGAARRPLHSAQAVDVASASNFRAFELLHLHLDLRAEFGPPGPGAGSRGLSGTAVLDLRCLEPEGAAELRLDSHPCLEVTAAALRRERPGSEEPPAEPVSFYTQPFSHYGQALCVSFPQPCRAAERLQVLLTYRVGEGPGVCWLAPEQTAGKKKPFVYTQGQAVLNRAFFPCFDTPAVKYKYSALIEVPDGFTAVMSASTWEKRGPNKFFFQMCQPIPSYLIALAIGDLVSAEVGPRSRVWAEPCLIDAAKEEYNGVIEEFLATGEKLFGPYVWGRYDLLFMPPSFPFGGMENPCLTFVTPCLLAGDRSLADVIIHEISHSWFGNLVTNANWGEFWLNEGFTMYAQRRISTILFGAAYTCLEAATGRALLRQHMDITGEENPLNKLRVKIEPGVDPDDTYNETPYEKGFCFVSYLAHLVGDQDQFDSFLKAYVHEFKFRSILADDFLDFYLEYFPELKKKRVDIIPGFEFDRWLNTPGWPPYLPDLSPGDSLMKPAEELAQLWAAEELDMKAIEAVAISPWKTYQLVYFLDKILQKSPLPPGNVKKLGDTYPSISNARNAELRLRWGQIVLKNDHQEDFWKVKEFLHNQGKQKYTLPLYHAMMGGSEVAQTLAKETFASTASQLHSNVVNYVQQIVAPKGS", "conditions": "α-Keto amides, cited from earlier work"}, "LAP": {"target": "LAP (Homo sapiens, UniProt P28838)", "sequence (P28838 whole entry)": "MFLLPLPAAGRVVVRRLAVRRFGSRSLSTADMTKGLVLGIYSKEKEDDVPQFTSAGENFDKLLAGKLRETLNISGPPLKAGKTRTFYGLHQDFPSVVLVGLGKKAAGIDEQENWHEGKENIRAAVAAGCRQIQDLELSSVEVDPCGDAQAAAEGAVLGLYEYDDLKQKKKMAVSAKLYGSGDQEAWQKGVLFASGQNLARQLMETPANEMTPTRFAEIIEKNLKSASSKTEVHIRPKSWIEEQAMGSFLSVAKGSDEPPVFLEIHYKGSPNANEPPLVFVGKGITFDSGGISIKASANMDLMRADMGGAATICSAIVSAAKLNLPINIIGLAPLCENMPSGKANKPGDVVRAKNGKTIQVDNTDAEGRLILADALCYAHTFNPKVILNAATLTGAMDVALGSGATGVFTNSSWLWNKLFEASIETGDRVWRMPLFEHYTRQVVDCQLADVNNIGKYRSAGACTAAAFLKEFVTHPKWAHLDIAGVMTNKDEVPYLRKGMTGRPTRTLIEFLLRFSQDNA", "conditions": "α-Aminoboric acids; cited from earlier work"}, "colitis in Balb-c mice": {"test_system": "colitis in Balb-c mice", "assay": "DSS colitis model in mice, disease activity index (DAI)", "assay_type": "in vivo", "conditions": "single intravenous application on day 3, phebestin 0.5 mg/kg or 1 million cells/animal, up to 48 hours after application", "source_text": "Colitis was triggered in Balb-c mice by the oral application of 3% dextran sodium sulphate solution (DSS). The degree of severity of the illness was established on the basis of a disease activity index (DAI). This consisted of the daily documentation of body weight loss, stool consistency, rectal bleeding, food and water intake, and is defined in the publication “Bank, U., Heimburg, A., Helmuth, M., Stefin, S., Lendeckel, U., Reinhold, D., Faust, J., Fuchs, P., Sens, B., Neubert, K., Täger, M., Ansorge, S.; Triggering endogenous immunosuppressive mechanisms by combined targeting of dipeptidyl peptidase IV (DPIV/CD26) and aminopeptidase N (APN/CD13)—A novel approach for the treatment of inflammatory bowel disease; International Immunopharmacology 6: 1925-1934 (2006)”.\nRegulatory T-cells from peripheral venous blood were recovered in parallel by means of density-gradient centrifugation and magnetic separation using CD25 Microbeads.\nOn day 3, either the aminopeptidase N inhibitor phebestin (0.5 mg/kgKG), untreated CD4^+CD25^+ Treg cells (1 million cells/animal) or activated CD4^+CD25^+ Treg cells (1 million cells/animal) were applied once intravenously.\nThe activation of the Treg cells occurred ex situ using the method according to the invention by incubating the Treg cells for 45 minutes in the presence of phebestin [500 μg/ml]."}, "[1]": {"test_system": "murine regulatory T-cells (CD4+CD25+)", "assay": "Co-culture of murine effector cells (MNC-CD25-) and regulatory T-cells, proliferation by tritium thymidine inclusion", "assay_type": "cell-based, mice", "conditions": "1.0 μM, after 5 days of co-culture, anti-CD3/anti-CD28", "method": "Mononuclear cells (MNC) were obtained from the peripheral blood of healthy mice by means of density-gradient centrifugation. The isolation of regulatory T-cells occurred using CD25 marking [anti-CD25 MicroBeads, Miltenyi Biotech]. The CD25^− MNC fraction served as effector cell control.\nThe functional capacity of the regulatory T-cells was tested in a special co-culture. For this, 20 000 effector cells (MNC-CD25^−) and regulatory T-cells (CD4^+CD25^+) in total were respectively cultivated in different quantitative ratios to one another over a period of 120 hours in microtest plates. The T-cell stimulation occurred by adding anti-CD3/anti-CD28 [1 μg/ml].\nThe degree of proliferation of the cultivated cells was analysed on the basis of the DNA synthesis rate by means of tritium thymidine inclusion over 24 hours [n=4]."}, "Cytosolic AP": {"target": "Cytosolic AP", "conditions": "α-Keto amides; cited from earlier work"}, "[2]": {"test_system": "human regulatory T-cells (CD4+CD25+)", "assay": "Co-culture of human effector cells (CD4+CD25-) and regulatory T-cells, proliferation by tritium thymidine inclusion", "assay_type": "cell-based", "conditions": "for effect of the inhibitor on suppressive capacity of the Treg cells: 120 hours co-culture, anti-CD3", "source_text": "Mononuclear cells were obtained from the peripheral blood of healthy donors by means of density-gradient centrifugation. The isolation of regulatory T-cells occurred by means of a two-stage magnetic separation:\nIn a first step CD4^+ T-cells were recovered by depletion of all CD4-negative cells [CD4 separation kit, Miltenyi Biotech, Bergisch-Gladbach, Germany]. The purity achieved regularly amounted to >95% CD4^+ T-cells.\nIn a second step CD4^+CD25^+ regulatory T-cells were in turn isolated from this population by magnetic column separation using CD25 marking [anti-CD25 MicroBeads, Miltenyi Biotech].\nThe CD4^+CD25^− fraction served as effector cell control.\nThe functional capacity of the regulatory T-cells was tested in a special co-culture. For this, 20 000 effector cells (CD4^+CD25^−) and regulatory T-cells (CD4^+CD25^+) in total were respectively cultivated in different quantitative ratios to one another over a period of 120 hours in microtest plates. A solid phase-bound anti-CD3 antibody [UCHT1, 0.25 μg/well] was used as activator of the T-cell stimulation.\nThe degree of proliferation of the cultivated cells was analysed on the basis of the DNA synthesis rate by means of tritium thymidine inclusion over 24 hours [n=5].\nThe degree of proliferation of the cultivated cells was analysed on the basis of the DNA synthesis rate by means of tritium thymidine inclusion over 24 hours [n=3].\nMononuclear cells were obtained from the peripheral blood of healthy donors by means of density-gradient centrifugation. A T-cell separation followed using nylon pad adherence.\nThe isolation of regulatory T-cells occurred by means of a two-stage magnetic separation:\nThe degree of proliferation of the cultivated cells was analysed on the basis of the DNA synthesis rate by means of tritium thymidine inclusion over 24 hours [n=10]."}, "[3]": {"conditions": "β-Aminothiols table, read-out: IC50 (nM) APN"}, "[4]": {"conditions": "N-Phenylphthalimides and -homophthalimides, enzyme not given, alanyl-aminopeptidase, read-out: IC50"}, "[5]": {"conditions": "α-Aminoboric acids, read-out: IC50, μM (APN)"}}, "note": "Where two headings read alike, the source gives them in different places."}
{"compound": "NC(CS)CC1CCCCC1", "note": "(centres unmarked)", "values": [{"measurement": "IC50", "setting": "APN; [3]", "value": 45, "unit": "nM"}]}
{"compound": "CC(C)CCNC(=O)C(=O)C(N)CC(C)C", "note": "(racemic)", "values": [{"measurement": "Ki", "setting": "Argininyl AP; (R) isomer", "value": 6.5, "unit": "µM"}, {"measurement": "Ki", "setting": "Argininyl AP; (S) isomer", "value": 3.2, "unit": "µM"}, {"measurement": "Ki", "setting": "APN; (R) isomer", "value": 18.6, "unit": "µM"}, {"measurement": "Ki", "setting": "APN; (S) isomer", "value": 10.5, "unit": "µM"}]}
{"compound": "N[C@H](Cc1ccccc1)B1OCCCO1", "values": [{"measurement": "IC50", "setting": "LAP", "value": 0.2, "unit": "µM"}]}
{"compound": "NC(CS)Cc1ccc(O)cc1", "note": "(centres unmarked)", "values": [{"measurement": "IC50", "setting": "APN; [3]", "value": 45, "unit": "nM"}]}
{"compound": "CC(C)c1cccc(C(C)C)c1N1C(=O)Cc2c(O)cccc2C1=O", "values": [{"measurement": "IC50", "setting": "APN; [4]", "value": 4300, "unit": "nM"}]}
{"compound": "CC(C)c1cccc(C(C)C)c1N1C(=O)Cc2c(N)cccc2C1=O", "values": [{"measurement": "IC50", "setting": "APN; [4]", "value": 5400, "unit": "nM"}]}
{"compound": "CC(C)C[C@@H](N)B(O)O", "values": [{"measurement": "IC50", "setting": "LAP", "value": 0.25, "unit": "µM"}]}
{"compound": "CC(C)CCNC(=O)[C@@H](O)[C@H](N)Cc1ccccc1", "values": [{"measurement": "Ki", "setting": "APN", "value": 20, "unit": "µM"}]}
{"compound": "C[C@@H](N)B1OC(C)(C)C(C)(C)O1", "values": [{"measurement": "IC50", "setting": "APN; [5]", "value": 70, "unit": "nM"}, {"measurement": "IC50", "setting": "LAP", "value": 0.35, "unit": "µM"}]}
{"compound": "CC(C)C[C@@H](N)B1OC(C)(C)C(C)(C)O1", "values": [{"measurement": "IC50", "setting": "APN; [5]", "value": 74, "unit": "nM"}, {"measurement": "IC50", "setting": "LAP", "value": 0.25, "unit": "µM"}]}
{"compound": "CCOC(=O)[C@H](N)CS", "values": [{"measurement": "IC50", "setting": "APN; [3]", "value": 350, "unit": "nM"}]}
{"compound": "CC(C)(C)SCC(N)CS", "note": "(centres unmarked)", "values": [{"measurement": "IC50", "setting": "APN; [3]", "value": 40, "unit": "nM"}]}
{"compound": "CC(C)[C@H](NC(=O)[C@@H](O)[C@H](N)Cc1ccccc1)C(=O)N[C@@H](Cc1ccccc1)C(=O)O", "note": "[phebestin]", "values": [{"measurement": "activity of the disease (disease activity index) / clinical symptoms", "setting": "colitis in Balb-c mice", "value": "no effect"}, {"measurement": "induction of suppressive capacity of the regulatory T-cells", "setting": "[1]", "value": "induced the suppressive capacity of the regulatory T-cells to a significant degree"}]}
{"compound": "CC(C)CCNC(=O)[C@@H](O)[C@H](N)CC(C)C", "values": [{"measurement": "Ki", "setting": "Argininyl AP", "value": "> 300", "unit": "µM"}, {"measurement": "Ki", "setting": "APN", "value": 24, "unit": "µM"}]}
{"compound": "NC(CS)c1ccccc1", "note": "(centres unmarked)", "values": [{"measurement": "IC50", "setting": "APN; [3]", "value": 25, "unit": "nM"}]}
{"compound": "CC(C)CCNC(=O)C(=O)[C@@H](N)Cc1ccccc1", "values": [{"measurement": "Ki", "setting": "Argininyl AP", "value": 1.5, "unit": "µM"}, {"measurement": "Ki", "setting": "APN", "value": 2.5, "unit": "µM"}, {"measurement": "Ki", "setting": "Cytosolic AP", "value": 1, "unit": "µM"}]}
{"compound": "CC1(C)OB([C@H](N)Cc2ccccc2)OC1(C)C", "values": [{"measurement": "IC50", "setting": "APN; [5]", "value": 50, "unit": "nM"}, {"measurement": "IC50", "setting": "LAP", "value": 0.2, "unit": "µM"}]}
{"compound": "NC(CS)COCc1ccccc1", "note": "(centres unmarked)", "values": [{"measurement": "IC50", "setting": "APN; [3]", "value": 56, "unit": "nM"}]}
{"compound": "CCCCC[C@H](CC(=O)NO)C(=O)N[C@H](C(=O)N1CCC[C@H]1CO)C(C)C", "note": "[actinonin]", "values": [{"measurement": "effect of the inhibitor on suppressive capacity of the Treg cells", "setting": "[2]; physiologically relevant range of 10:1 effector cells to Treg cells (10% Treg)", "value": "significant intensification of the suppressive capacity"}, {"measurement": "effect of the inhibitor on suppressive capacity of the Treg cells", "setting": "[2]; ratio of 1:1 of effector cells to Treg cells (50% Treg)", "value": "no reliable effect"}]}
{"compound": "CSc1ccccc1N1C(=O)Cc2ccccc2C1=O", "values": [{"measurement": "IC50", "setting": "APN; [4]", "value": 900, "unit": "nM"}]}
{"compound": "CCc1cccc(CC)c1-n1c(=O)[nH]c2ccccc2c1=O", "note": "[PAQ22, 3-(2,6-diethylphenyl-)quinazoline-2,4(1H3H)-dione]", "values": [{"measurement": "induction of suppressive capacity of the regulatory T-cells", "setting": "[2]; 10% and 5% Treg cell components, after 5 days of co-culture", "value": "induced the suppressive capacity"}]}
